SMILES strings stand for the structures. Calls of active or inactive are those of the source. No cut-off for these calls is given here.

CYP2C9, sequence (P11712 whole entry): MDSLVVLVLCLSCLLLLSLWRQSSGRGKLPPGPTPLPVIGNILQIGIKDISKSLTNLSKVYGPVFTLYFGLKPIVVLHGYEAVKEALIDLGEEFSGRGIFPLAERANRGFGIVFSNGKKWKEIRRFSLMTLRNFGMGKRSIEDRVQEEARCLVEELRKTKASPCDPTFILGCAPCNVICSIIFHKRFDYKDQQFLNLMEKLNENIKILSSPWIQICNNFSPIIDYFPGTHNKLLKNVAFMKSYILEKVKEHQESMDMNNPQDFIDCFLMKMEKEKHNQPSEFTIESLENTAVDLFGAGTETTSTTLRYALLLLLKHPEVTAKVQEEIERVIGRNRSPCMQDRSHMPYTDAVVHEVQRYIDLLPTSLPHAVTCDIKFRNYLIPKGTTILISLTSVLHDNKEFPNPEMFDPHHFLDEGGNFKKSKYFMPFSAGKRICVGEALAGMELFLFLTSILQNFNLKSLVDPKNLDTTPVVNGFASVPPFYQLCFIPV
CYP3A4, sequence (P08684 whole entry): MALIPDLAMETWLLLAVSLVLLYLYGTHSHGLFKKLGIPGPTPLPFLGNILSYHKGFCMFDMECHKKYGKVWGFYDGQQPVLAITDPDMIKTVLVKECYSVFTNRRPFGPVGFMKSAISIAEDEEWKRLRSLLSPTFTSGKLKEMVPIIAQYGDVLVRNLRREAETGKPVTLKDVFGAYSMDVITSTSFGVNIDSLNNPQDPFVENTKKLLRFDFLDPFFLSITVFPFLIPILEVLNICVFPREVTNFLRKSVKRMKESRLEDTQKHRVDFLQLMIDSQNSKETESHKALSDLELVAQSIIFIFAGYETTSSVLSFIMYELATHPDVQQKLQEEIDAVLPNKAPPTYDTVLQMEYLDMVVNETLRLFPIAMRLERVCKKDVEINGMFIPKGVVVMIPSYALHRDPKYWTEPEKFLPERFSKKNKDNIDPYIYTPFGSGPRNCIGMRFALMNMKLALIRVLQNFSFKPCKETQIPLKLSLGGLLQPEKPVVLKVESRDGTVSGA
CYP2C19, sequence (P33261 whole entry): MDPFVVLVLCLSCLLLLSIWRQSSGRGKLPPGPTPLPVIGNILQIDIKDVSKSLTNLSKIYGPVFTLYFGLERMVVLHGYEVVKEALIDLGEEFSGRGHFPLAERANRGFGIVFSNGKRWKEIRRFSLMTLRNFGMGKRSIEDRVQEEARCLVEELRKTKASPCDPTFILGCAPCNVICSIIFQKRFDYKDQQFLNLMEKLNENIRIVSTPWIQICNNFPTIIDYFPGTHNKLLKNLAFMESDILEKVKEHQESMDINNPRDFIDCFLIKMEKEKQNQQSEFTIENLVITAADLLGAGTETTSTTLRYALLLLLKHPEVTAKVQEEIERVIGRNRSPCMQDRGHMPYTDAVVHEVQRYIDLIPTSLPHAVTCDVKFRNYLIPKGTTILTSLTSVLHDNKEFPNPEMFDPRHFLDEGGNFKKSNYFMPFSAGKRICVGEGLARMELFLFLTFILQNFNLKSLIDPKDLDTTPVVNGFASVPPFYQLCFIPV

Test system in one data set: not listed separately
Kind of data set: Inhibition of S-nitrosoglutathione reductase expressed in Escherichia coli after 3 mins by UV/Vis spectrophotometry.
Settings: not given
Take `Cc1cc(C(N)=O)ccc1-n1c(CCC(=O)O)ccc1-c1ccc(-n2ccnc2C(C)C)cc1`: the IC50 (in general, the concentration at which inhibition is half-maximal) is “Not Active”.
On the same count and under the same terms, then `Cc1cc(C(N)=O)ccc1-n1c(CCC(=O)O)ccc1-c1ccc(-n2ccnc2C(F)(F)F)cc1`, with “Not Active”.

Staying with this data set, now noted: read-out: IC50.
Take `Cc1cc(C(N)=O)ccc1-n1c(CCC(=O)O)ccc1-c1ccc(-c2ccccc2)cc1`: the IC50 came to 6.16 µM.
`Cc1cc(C(N)=O)ccc1-n1c(CCC(=O)O)ccc1-c1cc(-n2ccnc2)cs1`: the IC50 came out at 0.026 µM.
The same measure, in the same setting: to `Cc1cc(C(N)=O)ccc1-n1c(CCC(=O)O)ccc1-c1ccc(-c2cn[nH]c2)cc1` belongs 2.66 µM; to `Cc1cc(C(N)=O)ccc1-n1c(CCC(=O)O)ccc1-c1ccc(N2CCNCC2)cc1`, 43.9 µM; to `Cc1cc(C(N)=O)ccc1-n1c(CCC(=O)O)ccc1-c1ccc(-c2ccc(=O)[nH]c2)cc1`, 19 µM.
For `Cc1cc(C(N)=O)ccc1-n1c(CCC(=O)O)ccc1-c1ccc(N2CCOCC2)cc1`, the IC50 was 8.17 µM.
For the molecule `Cc1cc(C(N)=O)ccc1-n1c(CCC(=O)O)ccc1-c1ccc(-n2cccn2)cc1`, the 50% inhibitory concentration (IC50) stood at 4.74 µM.
For the molecule `Cc1cc(C(N)=O)ccc1-n1c(CCC(=O)O)ccc1-c1ccc(-n2cnnc2)cc1`, the half-inhibitory concentration (IC50) is 1.48 µM.
`Cc1cc(C(N)=O)ccc1-n1c(CCC(=O)O)ccc1-c1ccc(N2CCCC2)cc1`: the 50% inhibitory concentration (IC50) was determined as 11.8 µM.
Turning to `Cc1cc(C(N)=O)ccc1-n1c(CCC(=O)O)ccc1-c1ccc(N2CCNC2=O)cc1`, the IC50 was found to be 50.6 µM.
Take `Cc1cc(C(N)=O)ccc1-n1c(CCC(=O)O)ccc1-c1ccc(-c2ccsc2)cc1`: the IC50 was 29.3 µM.
Consider `Cc1cn(-c2ccc(-c3ccc(CCC(=O)O)n3-c3ccc(C(N)=O)cc3C)cc2)cn1`, for which the IC50 worked out at 6.25 µM.
Consider `Cc1cc(C(N)=O)ccc1-n1c(CCC(=O)O)ccc1-c1ccc(-c2nnn[nH]2)cc1`, for which the IC50 was found to be 1.75 µM.
On to `Cc1cc(C(N)=O)ccc1-n1c(CCC(=O)O)ccc1-c1ccc(N2CCOC2=O)cc1`, for which the IC50 worked out at 53.5 µM.
Take `Cc1cc(C(N)=O)ccc1-n1c(CCC(=O)O)ccc1-c1ccc(-n2ccnc2)cn1`: the half-maximal inhibitory concentration (IC50) came to 0.36 µM.
The same measure, in the same setting: then `Cc1cc(C(N)=O)ccc1-n1c(CCC(=O)O)ccc1-c1ccc(-c2ccncc2)cc1`, with 9.8 µM.
Same read-out and setting: then `Cc1cc(C(N)=O)ccc1-n1c(CCC(=O)O)ccc1-c1ccc(-c2cncs2)cc1`, with 0.76 µM; and `Cc1cc(C(N)=O)ccc1-n1c(CCC(=O)O)ccc1-c1ccc(-c2ccco2)cc1`, with 6.52 µM; and `Cc1cc(C(N)=O)ccc1-n1c(CCC(=O)O)ccc1-c1ccc(-c2ccoc2)cc1`, with 0.51 µM.
Still for that read-out and setting: then `Cc1cc(C(N)=O)ccc1-n1c(CCC(=O)O)ccc1-c1csc(-n2ccnc2C)c1`, with 0.048 µM.
As to `Cc1cc(C(N)=O)ccc1-n1c(CCC(=O)O)ccc1-c1ccc(-c2cnn(C)c2)cc1`, the IC50 is 5.14 µM.
With `Cc1cc(C(N)=O)ccc1-n1c(CCC(=O)O)ccc1-c1cnc(-n2ccnc2)s1`, the IC50 was determined as 1.57 µM.
In the case of `CCc1nccn1-c1ccc(-c2ccc(CCC(=O)O)n2-c2ccc(C(N)=O)cc2C)cc1`, the half-inhibitory concentration (IC50) came out at 0.13 µM.
For the molecule `Cc1cc(C(N)=O)ccc1-n1c(CCC(=O)O)ccc1-c1cnc(-n2ccnc2)nc1`, the IC50 was determined as 0.15 µM.
On to `Cc1cc(C(N)=O)ccc1-n1c(CCC(=O)O)ccc1-c1ccc(-n2ccnc2)o1`, for which the IC50 came out at 0.9 µM.
Still for that read-out and setting: to `Cc1cc(C(N)=O)ccc1-n1c(CCC(=O)O)ccc1-c1ccc(-n2ccnc2CO)cc1` belongs 2.31 µM; to `Cc1cc(C(N)=O)ccc1-n1c(CCC(=O)O)ccc1-c1ccc(-n2ccnc2)cc1` [N6022], 0.02 µM; to `Cc1cc(C(N)=O)ccc1-n1c(CCC(=O)O)ccc1-c1ccc(-c2cccnc2)cc1`, 23.9 µM.
The same measure, in the same setting: then `CCc1nccn1-c1ccc(-c2ccc(CCC(=O)O)n2-c2ccc(C(N)=O)cc2C)s1`, with 0.048 µM; and `Cc1cc(C(N)=O)ccc1-n1c(CCC(=O)O)ccc1-c1ccc(-n2cnnn2)cc1`, with 5.19 µM.
For `Cc1cc(C(N)=O)ccc1-n1c(CCC(=O)O)ccc1-c1ccc(-n2ccnc2)nc1`, the IC50 came to 2.3 µM.
Still for that read-out and setting: then `Cc1cc(C(N)=O)ccc1-n1c(CCC(=O)O)ccc1-c1ccc(-n2ccnn2)cc1`, with 13.3 µM; and `Cc1cc(C(N)=O)ccc1-n1c(CCC(=O)O)ccc1-c1ccc(-n2cccc2)cc1`, with 10.2 µM.
On to `Cc1cc(C(N)=O)ccc1-n1c(CCC(=O)O)ccc1-c1ccc(-n2ccnc2C2CC2)cc1`, for which the IC50 was 6.96 µM.
As to `Cc1cc(C(N)=O)ccc1-n1c(CCC(=O)O)ccc1-c1ccc(-n2ccnc2C)cc1`, the IC50 was found to be 0.075 µM.
Regarding `Cc1cc(C(N)=O)ccc1-n1c(CCC(=O)O)ccc1-c1ccc(-c2ccnn2C)cc1`, the IC50 was 0.68 µM.
For the molecule `Cc1cc(C(N)=O)ccc1-n1c(CCC(=O)O)ccc1-c1ccc(N2CCCCC2)cc1`, the IC50 came to 8.78 µM.

The target in a further data set is T1, CYP1A2 (Homo sapiens, UniProt P05177).
T1 sequence (P05177 whole entry): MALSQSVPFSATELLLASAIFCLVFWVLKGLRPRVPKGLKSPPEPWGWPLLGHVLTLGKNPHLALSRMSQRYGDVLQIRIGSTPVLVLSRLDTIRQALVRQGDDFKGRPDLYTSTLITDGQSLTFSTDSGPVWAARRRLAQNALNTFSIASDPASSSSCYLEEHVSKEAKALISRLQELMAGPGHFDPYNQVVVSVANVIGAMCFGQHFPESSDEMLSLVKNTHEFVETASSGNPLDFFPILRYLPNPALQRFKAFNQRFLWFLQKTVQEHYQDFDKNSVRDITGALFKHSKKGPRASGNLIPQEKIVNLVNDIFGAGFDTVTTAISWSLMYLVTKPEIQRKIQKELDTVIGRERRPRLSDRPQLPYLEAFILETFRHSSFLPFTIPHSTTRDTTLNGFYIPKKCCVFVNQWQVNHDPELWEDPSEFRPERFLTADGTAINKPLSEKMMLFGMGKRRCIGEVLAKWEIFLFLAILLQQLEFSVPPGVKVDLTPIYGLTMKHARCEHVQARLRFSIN
The experiment in a line: Inhibition of CYP1A2 at 10 uM. It is filed as ADME.
Settings: not given
Consider `Cc1cc(C(N)=O)ccc1-n1c(CCC(=O)O)ccc1-c1ccc(-n2ccnc2C)s1`, for which the inhibition (usually the drop in the measured response relative to a control, in per cent) at 10 µM was -8%.
Same read-out and setting: to `Cc1cc(C(N)=O)ccc1-n1c(CCC(=O)O)ccc1-c1cc(-n2ccnc2C)cs1` belongs -11%.
On to `CCc1nccn1-c1ccc(-c2ccc(CCC(=O)O)n2-c2ccc(C(N)=O)cc2C)cc1`, for which the inhibition at 10 µM turned out to be 6%.
With `Cc1cc(C(N)=O)ccc1-n1c(CCC(=O)O)ccc1-c1ccc(-n2ccnc2C)cc1`, the inhibition at 10 µM turned out to be 11%.
Still for that read-out and setting: to `Cc1cc(C(N)=O)ccc1-n1c(CCC(=O)O)ccc1-c1ccc(-n2ccnc2)s1` belongs 77%.

Another data set addresses CYP2C9 (Homo sapiens, UniProt P11712). The experiment in a line: Inhibition of CYP2C9 at 10 uM.
Settings: not given
It is filed as ADME.
Regarding `Cc1cc(C(N)=O)ccc1-n1c(CCC(=O)O)ccc1-c1ccc(-n2ccnc2C)s1`, the inhibition at 10 µM came to 15%.
In the case of `Cc1cc(C(N)=O)ccc1-n1c(CCC(=O)O)ccc1-c1cc(-n2ccnc2C)cs1`, the inhibition at 10 µM was determined as 13%.
For `CCc1nccn1-c1ccc(-c2ccc(CCC(=O)O)n2-c2ccc(C(N)=O)cc2C)cc1`, the inhibition at 10 µM is 15%.
As for `Cc1cc(C(N)=O)ccc1-n1c(CCC(=O)O)ccc1-c1ccc(-n2ccnc2C)cc1`, the inhibition at 10 µM turned out to be 20%.
`Cc1cc(C(N)=O)ccc1-n1c(CCC(=O)O)ccc1-c1ccc(-n2ccnc2)s1`: the inhibition at 10 µM is 92%.

The next data set addresses CYP2C19 (Homo sapiens, UniProt P33261). Kind of data set: Inhibition of CYP2C19 at 10 uM. It is filed as ADME.
Settings: not given
Regarding `Cc1cc(C(N)=O)ccc1-n1c(CCC(=O)O)ccc1-c1ccc(-n2ccnc2C)s1`, the inhibition at 10 µM stood at 25%.
On the same count and under the same terms, to `Cc1cc(C(N)=O)ccc1-n1c(CCC(=O)O)ccc1-c1cc(-n2ccnc2C)cs1` belongs 11%; to `CCc1nccn1-c1ccc(-c2ccc(CCC(=O)O)n2-c2ccc(C(N)=O)cc2C)cc1`, 25%.
Still for that read-out and setting: to `Cc1cc(C(N)=O)ccc1-n1c(CCC(=O)O)ccc1-c1ccc(-n2ccnc2C)cc1` belongs 55%; to `Cc1cc(C(N)=O)ccc1-n1c(CCC(=O)O)ccc1-c1ccc(-n2ccnc2)s1`, 83%.

The target of the next data set is Cytochrome P450 2C19 (Homo sapiens, UniProt P33261). The experiment in a line: Inhibition of CYP2C19.
Cytochrome P450 2C19, sequence (P33261 whole entry): as the sequence (P33261 whole entry) above
Settings: not given
The class given is ADME.
For the molecule `Cc1cc(C(N)=O)ccc1-n1c(CCC(=O)O)ccc1-c1ccc(-n2ccnc2)cc1` [N6022], the IC50 turned out to be 0.77 µM.

The target of a further data set is CYP2D6 (Homo sapiens, UniProt P10635). The experiment in a line: Inhibition of CYP2D6 at 10 uM. It is filed as ADME.
CYP2D6, sequence (P10635 whole entry): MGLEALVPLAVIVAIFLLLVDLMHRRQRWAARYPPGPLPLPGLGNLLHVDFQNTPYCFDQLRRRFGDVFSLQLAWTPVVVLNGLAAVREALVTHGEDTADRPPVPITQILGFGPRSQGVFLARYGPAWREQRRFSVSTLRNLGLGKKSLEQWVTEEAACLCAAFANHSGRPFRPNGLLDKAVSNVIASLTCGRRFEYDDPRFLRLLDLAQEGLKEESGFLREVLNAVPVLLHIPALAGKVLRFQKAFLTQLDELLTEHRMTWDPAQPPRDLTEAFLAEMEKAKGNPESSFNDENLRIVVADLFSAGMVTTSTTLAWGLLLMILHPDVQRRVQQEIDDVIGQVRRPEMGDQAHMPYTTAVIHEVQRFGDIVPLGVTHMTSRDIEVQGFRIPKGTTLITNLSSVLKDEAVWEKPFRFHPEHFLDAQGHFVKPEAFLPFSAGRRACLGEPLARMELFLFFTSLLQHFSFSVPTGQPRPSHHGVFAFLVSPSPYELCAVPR
Settings: not given
For `Cc1cc(C(N)=O)ccc1-n1c(CCC(=O)O)ccc1-c1ccc(-n2ccnc2C)s1`, the inhibition at 10 µM amounted to 10%.
`Cc1cc(C(N)=O)ccc1-n1c(CCC(=O)O)ccc1-c1cc(-n2ccnc2C)cs1`: the inhibition at 10 µM was 12%.
Consider `CCc1nccn1-c1ccc(-c2ccc(CCC(=O)O)n2-c2ccc(C(N)=O)cc2C)cc1`, for which the inhibition at 10 µM was 20%.
As for `Cc1cc(C(N)=O)ccc1-n1c(CCC(=O)O)ccc1-c1ccc(-n2ccnc2C)cc1`, the inhibition at 10 µM turned out to be 11%.
On the same count and under the same terms, to `Cc1cc(C(N)=O)ccc1-n1c(CCC(=O)O)ccc1-c1ccc(-n2ccnc2)s1` belongs 96%.

Another data set has as its target CYP3A4 (Homo sapiens, UniProt P08684). Kind of data set: Inhibition of CYP3A4 at 10 uM. The class given is ADME.
Settings: not given
As for `Cc1cc(C(N)=O)ccc1-n1c(CCC(=O)O)ccc1-c1ccc(-n2ccnc2C)s1`, the inhibition at 10 µM was 27%.
On the same count and under the same terms, then `Cc1cc(C(N)=O)ccc1-n1c(CCC(=O)O)ccc1-c1cc(-n2ccnc2C)cs1`, with 18%; and `CCc1nccn1-c1ccc(-c2ccc(CCC(=O)O)n2-c2ccc(C(N)=O)cc2C)cc1`, with 27%.
On to `Cc1cc(C(N)=O)ccc1-n1c(CCC(=O)O)ccc1-c1ccc(-n2ccnc2C)cc1`, for which the inhibition at 10 µM came to 31%.
For `Cc1cc(C(N)=O)ccc1-n1c(CCC(=O)O)ccc1-c1ccc(-n2ccnc2)s1`, the inhibition at 10 µM is 91%.

The species named for a further data set is Homo sapiens. The experiment in a line: Binding affinity to human recombinant delta2 opiate receptor by radioligand displacement assay.
Settings: not given
A general note: Displacement assays read how much labelled ligand stays bound in the presence of the test substance.
In the case of `Cc1cc(C(N)=O)ccc1-n1c(CCC(=O)O)ccc1-c1ccc(-n2ccnc2)cc1` [N6022], the result was inactive.

The target in the next data set is Mu-type opioid receptor (Homo sapiens) (UniProt P35372). Kind of data set: Binding affinity to human recombinant mu opioid receptor at 10 uM by radioligand displacement assay.
Mu-type opioid receptor (Homo sapiens), sequence (P35372 whole entry): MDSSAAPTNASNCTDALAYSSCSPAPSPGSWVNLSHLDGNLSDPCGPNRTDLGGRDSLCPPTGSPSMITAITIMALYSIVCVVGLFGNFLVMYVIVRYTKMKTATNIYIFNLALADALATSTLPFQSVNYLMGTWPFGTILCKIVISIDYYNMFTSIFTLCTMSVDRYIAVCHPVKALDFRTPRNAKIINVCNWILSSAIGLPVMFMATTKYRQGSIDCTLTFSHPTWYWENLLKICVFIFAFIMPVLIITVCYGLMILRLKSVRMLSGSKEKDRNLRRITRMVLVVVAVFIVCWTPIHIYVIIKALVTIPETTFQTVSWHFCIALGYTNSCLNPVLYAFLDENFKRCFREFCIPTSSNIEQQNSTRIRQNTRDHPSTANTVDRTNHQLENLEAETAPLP
Settings: not given
Take `Cc1cc(C(N)=O)ccc1-n1c(CCC(=O)O)ccc1-c1cc(-n2ccnc2C)cs1`: the inhibition is 69%.

The values above are taken from ChEMBL document CHEMBL1833839, “Discovery of potent and novel S-nitrosoglutathione reductase inhibitors devoid of cytochrome P450 activities” (Bioorg Med Chem Lett, 2011).
